# From US7094809B2, “Method of treating subject infected with Neisseria gonorrhea” (Northeastern Ohio Universities College of Medicine, priority 2000, dated 2006)
# Like-named read-outs stand apart in the source and are kept apart here.
# How the values were obtained:
# [1] = system: Vero cells; test: MTT colorimetric cell toxicity assay; type: cell-based, African green monkey
# Description: Cell toxicity of the tolans 4,4′-dihydroxytolan (“Tolan-5”), 3,4′,5-trihydroxytolan (“Tolan-10”) and 4-hydroxy-4′-trifluoromethyltolan (“Tolan-11”) was determined using an MTT assay. In this assay, cells are exposed to MTT, 3-(4,5-dimethylthiazol-2-yl)-2,5-diphenyltetrazolium bromide, which is taken into the cells and reduced by mitochondrial dehydrogenase to a purple formazan, a large molecule which is unable to pass through intact cell membranes, and therefore accumulates in healthy cells. The ability of cells to reduce MTT is an indication of mitochondrial integrity and activity, which may be interpreted as a measure of viability. Solubilization of the cells results in the liberation of the product which can readily be detected spectrophotometrically.
# Various concentrations of Tolan-5, Tolan-10 and Tolan-11 were added to 96 well tissue culture plates that had been seeded with Vero cells. The plates were then incubated at 37° C. in 5% CO2/95% air for 24, 48 and 72 hours. At the end of each time point, 50 μl of MTT (1 mg/ml) was added to the tissue culture plates which were then incubated for an additional four hours. At the end of that time, dimethyl sulfoxide (DMSO) was added to dissolve the cells and formazan, and the plates were read spectrophotometrically at 540 nm. […] Presented in Table I below are the toxicity results for Tolan-5, Tolan-10, and Tolan-11 measured at 24, 48 and 72 hours of treatment.
# [2] = system: HSV-1; test: Inhibition of HSV-1 replication in vitro, plaque assay (Example 9); type: cell-based; settings: for HSV-1 production: Vero cells, moi 1, up to 72 hours
# Description: Tissue culture cells were infected with HSV-1 and incubated in solutions containing Tolan-5, Tolan-10 and Tolan-11. The concentrations used ranged from one-half to three-quarters of the calculated CD50 for the respective tolan at 48 hours of treatment. Specifically, Vero cells were infected with HSV-1 at a multiplicity of infection of one for one hour. At the end of that time, the cultures were rinsed with media and fresh media containing various concentration of the respective tolan were added. Infected control cultures were incubated in media lacking hydroxylated tolan. At 1, 24, 48, and 72 hours after infection, samples were frozen at −70° C. until assayed for new virus production. Virus production was quantified by the plaque assay for each time point of infection. The results, which are expressed as plaque forming units per milliliter (pfu/ml).
# [3] = system: HSV-1; test: HSV-1 plaque assay, infected Vero cells, moi 1 (Example 3); type: cell-based; settings: 50 μM, data not shown
# Description: Cultures of African green monkey kidney cells (Vero) cells, obtained from the American Type Culture Collection, Rockville, Md. were grown to confluence in Medium 199 supplemented with 5% fetal bovine serum, 0.075% NaHCO3, and 50 μg/ml gentamycin sulfate in 25 cm^2 tissue culture flasks. Cells were infected with HSV-1 at a multiplicity of infection (moi) of one and incubated at room temperature for one hour to allow for virus attachment to and penetration of the cell. Under these conditions, approximately half of the cells are infected with virus. Thereafter, the cultures were rinsed three time with media and incubated in medium containing 50 μM or 75 μM 4, 4′-dihydroxytolan prepared in 0.2% dimethyl-sulfoxide (DMSO). Controls were treated identically, but were incubated without the dihyroxylated tolan. For purposes of comparison, HSV cell were also inoculated in the presence of 52.5 μM 4,4′-dihydroxystilbene. Due to the higher cell toxicity of the stilbene, cells were not incubated in the presence of 75 μM dihydroxystilbene.
# Upon addition of the medium to the cultures and at 24 hours time periods thereafter, i.e., 0 hours, 24 hours, 48 hours, and 72 hours after addition of the drug, cells and medium were frozen at −70° C. Samples were then thawed, sonicated and titrated on Vero cells to determine the number of plaque forming units (pfu's) of virus produced by each culture.
# [4] = system: HSV-1; test: HSV-1 skin scratch infection in hairless mice, topical treatment (Example 10); type: in vivo, SKH-1 hairless mice; settings: for severity of HSV lesions: topical, three times a day for five days, versus untreated or DMSO only; for animals that perished within 11 days after infection: controls 50% died
# Description: Female SKH-1 hairless mice 4–5 weeks old were lightly anesthetized and a scratch approximately 2–3 mm long and 0.25 mm deep was made on the lateral dorsal aspect of the neck. The scratch was infected with 10^6 plaque forming units of HSV-1. One hour later, the infected scratch area was treated with a 5% or 10% solution of Tolan-10 in DMSO. This treatment was repeated three times a day for five days. There were at least six mice in each treatment group. Untreated mice and mice treated with DMSO only were used as controls. Beginning on day 1 and continuing for 10–11 days, the scratch site was examined daily for evidence of an HSV infection and scored according to the following schedule: • 0=no visible change on skin by scratch • 1+=papules around scratch • 2+=papules around scratch ulcerate with scab formation • 3+=ulcerative zosterform spread along peripheral nerves to flank of animal • 4+=ulcerative lesions open on flank • 5+=death/sacrifice The data was grouped according to treatment and statistically analyzed for significance.
# [5] = system: Neisseria gonorrhea CDC 98; test: Growth inhibition on chocolate agar plates; type: cell-based
# Description: (§1) Various concentrations of the trihydroxytolan Tolan-10 were incorporated into chocolate agar plates that were prepared using standard procedures. The trihydroxylated tolan was first dissolved in DMSO and medium and then added to liquid chocolate agar, which was then poured into petri plates and allowed to solidify. The highest concentration of DMSO in the agar was 0.5%. Control plates containing chocolate agar and DMSO at a final concentration of 0.5% were also prepared.
# Neisseria gonorrhea CDC 98 was obtained from Difco Laboratories. The authenticity of the bacterium was confirmed utilizing standard microbiological techniques of identification. Cultures of the bacterial isolate were inoculated onto fresh plates of solidified chocolate agar and then 24 hours later, a suspension was made from isolated colonies.
# (§2) 10 μl aliquots of the suspension were spread evenly across the surface of solidified control chocolate agar lacking tolan and the surface of solidified chocolate agar containing Tolan-10 at final concentrations ranging from 1 to 125 μg/ml. Thereafter, the agar plates were incubated at 37° C. with or without 5% CO2. All plates were visually examined for growth of the bacterium 24 hours later to determine the concentration of the tri-hydroxylated tolan that inhibits growth by 50% (MIC50) as well as the concentration which inhibits any visible growth (MIC100).
# [6] = system: Streptococcus pyogenes; test: Growth inhibition on agar plates; type: cell-based
# Description: as §1, §2
# (§3) The effect of the same concentrations of Tolan-10 on the growth of Escherichia coli, Staphylococcus aureus, Streptococcus pyogenes, Pseudomonas aeruginosa, Neisseria meningiditis and Candida albicans was also determined. […] The IC50 value of the tri-hydroxylated tolan for this bacterium at 24 hours of treatment was 50 μg/ ml and the IC100 value was 100 μg/ml. In contrast, Tolan 10, at the highest concentration tested, had no effect on the other microorganisms listed.
# [7] = system: Staphylococcus aureus; test: Growth inhibition on agar plates; type: cell-based
# Description: as §1, §2, §3
# [8] = system: Pseudomonas aeruginosa; test: Growth inhibition on agar plates; type: cell-based
# Description: as §1, §2, §3
# [9] = system: Candida albicans; test: Growth inhibition on agar plates; type: cell-based
# Description: as §1, §2, §3
# [10] = system: Escherichia coli; test: Growth inhibition on agar plates; type: cell-based
# Description: as §1, §2, §3
# [11] = system: Neisseria meningiditis; test: Growth inhibition on agar plates; type: cell-based
# Description: as §1, §2, §3
smiles,measurement,setting,value
"Oc1ccc(C#Cc2ccc(C(F)(F)F)cc2)cc1 [Tolan-11, 4-hydroxy-4′-trifluoromethyltolan]",toxicity (in words),[1],more toxic than the other hydroxylated tolans
same,CD50,[1]; 24 hours,72.1 µM
same,CD50,[1]; 48 hours,48.2 µM
same,CD50,[1]; 72 hours,47.1 µM
same,HSV-1 production,[2],inhibited HSV-1 production
same,effect on HSV-1 production,[2]; concentration of less than 48 μm,little to no effect
"Oc1ccc(C=Cc2ccc(O)cc2)cc1 [4,4′-dihydroxystilbene, reference compound]",effect on virus production,[3],no effect
"Oc1ccc(C#Cc2cc(O)cc(O)c2)cc1 [Tolan-10, 3,4′,5-trihydroxytolan]",severity of HSV lesions,[4]; 5% solution in DMSO,significantly reduced the severity of HSV lesions
same,animals that perished within 11 days after infection,[4]; 5%,none
same,severity of HSV lesions,[4]; 10% solution in DMSO,significantly reduced the severity of HSV lesions
same,animals that perished within 11 days after infection,[4]; 10%,none
same,effectiveness of 10% compared with 5%,"[4]; particularly days 6–10, not significantly different",slightly more effective than 5% Tolan-10
same,IC100 value,[5]; 24 hours of treatment,100 µg/mL
same,IC100,"[5]; N. gonorrhoeae, agar, 24 hours",100 mg/L
same,IC50,"[5]; N. gonorrhoeae, agar, 24 hours, read-out: IC50",50 µg/mL
same,IC50,"[5]; Neisseria, CDC98, 24 hours of treatment, read-out: IC50 value",50 µg/mL
same,selectivity of growth inhibition,[5]; versus the other microorganisms tested,selectively inhibited
same,IC100,[6]; S. pyogenes,>125 mg/L
same,IC50,"[6]; Streptococcus pyogenes, S. pyogenes",> 125 µg/mL
same,effect on growth,[6]; highest concentration tested,no effect
same,IC100,[7]; S. aureus,>125 mg/L
same,IC50,"[7]; Staphylococcus aureus, S. aureus",> 125 µg/mL
same,effect on growth,[7]; highest concentration tested,no effect
same,IC100,[8]; P. aeruginosa,>125 mg/L
same,IC50,"[8]; Pseudomonas aeruginosa, P. aeruginosa",> 125 µg/mL
same,effect on growth,[8]; highest concentration tested,no effect
same,IC100,[9]; C. albicans,>125 mg/L
same,IC50,"[9]; Candida albicans, C. albicans",> 125 µg/mL
same,effect on growth,[9]; highest concentration tested,no effect
same,IC100,[10]; E. coli,>125 mg/L
same,IC50,"[10]; Escherichia coli, E. coli",> 125 µg/mL
same,effect on growth,[10]; highest concentration tested,no effect
same,IC50,"[11]; Neisseria, N. meningitides",> 125 µg/mL
same,effect on growth,[11]; highest concentration tested,no effect
same,toxicity (in words),[1],very little toxicity
same,CD50,[1]; 24 hours,>200 µM
same,CD50,[1]; 48 hours,>200 µM
same,CD50,[1]; 72 hours,>200 µM
same,estimated CD50,[1]; summary of Table 1,> 200 μm
same,effectiveness against the virus over concentrations,[2]; 350 μm to 175 μm,equally effective against the virus at all concentrations
same,HSV-1 production,[2],inhibited HSV-1 production
